What was measured:
[1] = molecular target: T1, Recombinant ROCK2 (amino acids 5-554) (Homo sapiens, UniProt O75116); assay: ROCK inhibition assay, LANCE Ultra TR-FRET (ROCK2); format: biochemical; conditions: 1 mM of ATP
T1 construct: ROCK2 (amino acids 5-554)
Procedure: (§1) Kinase IC50 was determined through an in vitro assay based on LANCE Ultra TR-FRET (Time-Resolved Fluorescence Resonance Energy Transfer) homogeneous technologies method 5 (Perkin Elmer). Recombinant ROCK1 (amino acids 1-477) and ROCK2 (amino acids 5-554) proteins were purchased from Carna Biosciences and SignalChem. Compound activities were measured by Envision and IC50s were calculated. The assays were performed in white LUMITRAC™ 200 96 well half-area microplates from Greiner Bio-One. The kinase reaction buffer consisted of 50 mM HEPES pH 7.5, 1 mM EGTA, 10 mM MgCl2, 2 mM DTT and 0.01% 10 Tween-20. Kinases were incubated with 50 nM (ULight-CREBtide) substrate in the presence of 1 mM (ROCK1) or 1 mM (ROCK2) of ATP. The kinase reaction was carried out for 1 hour before addition of a stopping buffer to a final of 10 mM EDTA and 0.6 nM of LANCE Ultra Europium anti-phospho-CREB (Ser133) antibody (PerkinElmer TRF0200) in LANCE detection buffer. All assay incubations were performed at room temperature, and the microplates were sealed with polyester film during that time. The reaction was incubated for 1 hour, and the signal was read in Envision in TR-FRET mode (excitation at 320 nm and emission at 615/665 nm).
(§2) As used herein, a way to describe potency of inhibitory activity (nM) is a value of inhibitory activity at 50% (IC50).

[2] = Blood-brain barrier penetration, brain-to-plasma ratio in mouse; format: in vivo; conditions: CD-1 mouse, IV 1 mg/kg, n=3
Procedure: (§3) The concentrations of compounds of (1) in blood and brain were measured from plasma and brain samples taken 0.25 and 2 hours after intravenous (IV) administration of the compounds of (1) at 1 mg/kg in CD-1 mouse and Sprague-Dawley rat (n=3). After euthanizing the mouse and rat, blood samples from cardiac puncture and brain tissue were collected. Plasma or brain homogenate was vortexed for 1 min. with internal standard in Methanol/Acetonitrile (1:1, v/v), and centrifuged at 4000-4500 rpm for 15 min. at room temperature to precipitate proteins. Subsequently, the supernatant was introduced into the LC/MS/MS system. An AB Sciex API 5500 mass spectrometer system (Sciex, USA) was used for quantitative analysis. The concentrations compounds of (1) in plasma and brain sample were determined using the standard calibration curve and brain-to-plasma concentration ratio was calculated.

[3] = Blood-brain barrier penetration, brain-to-plasma ratio in rat; format: in vivo; conditions: Sprague-Dawley rat, IV 1 mg/kg, n=3
Procedure: as §3

[4] = molecular target: T2, Recombinant ROCK1 (amino acids 1-477) (Homo sapiens, UniProt Q13464); assay: ROCK inhibition assay, LANCE Ultra TR-FRET (ROCK1); format: biochemical; conditions: 1 mM of ATP
T2 construct: Recombinant ROCK1 (amino acids 1-477)
T2 sequence (Q13464 1-477): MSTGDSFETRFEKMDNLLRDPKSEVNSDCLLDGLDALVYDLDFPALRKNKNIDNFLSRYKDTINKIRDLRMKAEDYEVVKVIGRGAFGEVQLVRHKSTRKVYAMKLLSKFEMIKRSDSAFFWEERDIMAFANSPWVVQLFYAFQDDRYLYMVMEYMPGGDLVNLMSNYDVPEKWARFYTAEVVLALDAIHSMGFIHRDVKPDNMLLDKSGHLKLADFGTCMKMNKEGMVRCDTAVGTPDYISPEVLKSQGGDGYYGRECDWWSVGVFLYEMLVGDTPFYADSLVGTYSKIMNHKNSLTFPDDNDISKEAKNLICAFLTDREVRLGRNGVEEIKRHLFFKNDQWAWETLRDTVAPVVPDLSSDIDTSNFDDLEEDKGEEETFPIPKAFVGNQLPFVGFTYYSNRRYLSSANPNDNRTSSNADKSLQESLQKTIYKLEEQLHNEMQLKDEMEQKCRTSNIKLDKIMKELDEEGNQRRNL
Procedure: as §1, §2

T1 sequence (O75116 5-554): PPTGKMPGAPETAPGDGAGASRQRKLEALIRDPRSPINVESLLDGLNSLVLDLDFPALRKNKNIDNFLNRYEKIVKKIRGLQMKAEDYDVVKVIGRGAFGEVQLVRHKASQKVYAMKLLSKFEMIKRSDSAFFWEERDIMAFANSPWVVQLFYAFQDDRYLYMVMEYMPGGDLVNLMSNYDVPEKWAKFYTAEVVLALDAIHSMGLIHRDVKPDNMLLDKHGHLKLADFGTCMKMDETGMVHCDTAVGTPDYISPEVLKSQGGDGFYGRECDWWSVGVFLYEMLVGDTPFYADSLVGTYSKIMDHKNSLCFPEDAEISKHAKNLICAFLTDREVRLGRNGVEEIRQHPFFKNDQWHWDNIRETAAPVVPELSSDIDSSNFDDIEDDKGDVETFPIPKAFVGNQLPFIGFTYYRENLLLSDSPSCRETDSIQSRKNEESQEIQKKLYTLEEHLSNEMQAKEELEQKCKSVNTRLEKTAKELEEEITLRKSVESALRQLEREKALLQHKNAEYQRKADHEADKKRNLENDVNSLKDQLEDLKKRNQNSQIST

| SMILES | IC50 [1] | IC50 [4] | Kp at 0.25 h [2] | Kp at 2 h [2] | Kp at 0.25 h [3] | Kp at 2 h [3] |
| --- | --- | --- | --- | --- | --- | --- |
| CN1CC[C@@H]1Cn1cc(C(=O)C2COc3ccc(Cl)cc3C2)c2ccc(-c3cn[nH]c3Cl)cc21 (stereo partly drawn) [Compound 1-55] | < 0.02 µM | > 0.501 µM | 0.67 | 0.8 | 0.4 | 0.59 |
| CCN(CC)CCn1cc(C(=O)C2COc3ccc(OC)cc3C2)c2ccc(-c3cn[nH]c3Cl)cc21 (stereo not drawn) [Compound 3-17] | 0.021 to 0.2 µM | > 0.501 µM | 0.73 | 0.92 | 1.05 | 0.98 |
| COc1[nH]ncc1-c1ccc2c(C(=O)C3COc4ccc(Cl)cc4C3)cn(CCN(C)C)c2n1 (stereo not drawn) [Compound 1-8] | 0.201 to 0.5 µM | > 0.501 µM |  |  |  |  |
| CN(C)CCn1cc(C(=O)C2COc3ccc(Cl)cc3C2)c2ccc(-c3cn[nH]c3F)cc21 (stereo not drawn) [Compound 1-24] | 0.021 to 0.2 µM | > 0.501 µM |  |  |  |  |
| COc1ccc2c(c1)CC(C(=O)c1cn(C[C@@H]3CCN3)c3cc(-c4cn[nH]c4F)ccc13)CO2 (stereo partly drawn) [Compound 1-37] | < 0.02 µM | > 0.501 µM |  |  |  |  |
| O=C(c1cn(C[C@H]2CCN2)c2cc(-c3cn[nH]c3F)ccc12)C1COc2ccc(Cl)cc2C1 (stereo partly drawn) [Compound 1-40] | < 0.02 µM | > 0.501 µM |  |  |  |  |
| O=C(c1cn(CC2CCN2)c2cc(-c3cn[nH]c3Cl)ccc12)C1COc2ccc(Cl)cc2C1 (stereo not drawn) [Compound 1-31] | 0.021 to 0.2 µM | > 0.501 µM |  |  |  |  |
| COc1n[nH]cc1-c1ccc2c(C(=O)C3COc4ccc(Cl)cc4C3)cn(C[C@H](C)N)c2c1 (stereo partly drawn) [Compound 2-9] | < 0.02 µM | 0.201 to 0.5 µM |  |  |  |  |
| C[C@@H](N)Cn1cc(C(=O)C2COc3ccc(Cl)cc3C2)c2ccc(-c3c[nH]nc3Cl)cc21 (stereo partly drawn) [Compound 2-5] | < 0.02 µM | 0.021 to 0.2 µM |  |  |  |  |
| COc1ccc2c(c1)C[C@H](C(=O)c1cn(C[C@H]3CCN3C)c3cc(-c4cn[nH]c4Cl)ccc13)CO2 [Compound 1-51] | < 0.02 µM | > 0.501 µM |  |  |  |  |
| CN(C)CCn1cc(C(=O)C2COc3ccc(F)cc3C2)c2ccc(-c3c[nH]nc3Cl)nc21 (stereo not drawn) [Compound 1-10] | 0.021 to 0.2 µM | > 0.501 µM |  |  |  |  |
| CN1CCCC1Cn1cc(C(=O)C2COc3ccc(Cl)cc3C2)c2ccc(-c3cn[nH]c3F)cc21 (stereo not drawn) [Compound 1-27] | 0.201 to 0.5 µM | 0.201 to 0.5 µM |  |  |  |  |
| COc1ccc2c(c1)CC(C(=O)c1cn(C[C@H]3CCN3)c3cc(-c4cn[nH]c4F)ccc13)CO2 (stereo partly drawn) [Compound 1-38] | < 0.02 µM | 0.201 to 0.5 µM |  |  |  |  |
| CN(C)CCn1cc(C(=O)C2COc3ccc(Cl)cc3C2)c2ccc(-c3cn[nH]c3F)nc21 (stereo not drawn) [Compound 1-16] | > 0.501 µM | > 0.501 µM |  |  |  |  |
| C[C@H](N)Cn1cc(C(=O)C2COc3ccc(Cl)cc3C2)c2ccc(-c3cn[nH]c3F)cc21 (stereo partly drawn) [Compound 2-8] | > 0.501 µM | > 0.501 µM |  |  |  |  |
| CN1CC(Cn2cc(C(=O)C3COc4ccc(Cl)cc4C3)c3ccc(-c4cn[nH]c4F)cc32)C1 (stereo not drawn) [Compound 1-43] | < 0.02 µM | 0.021 to 0.2 µM |  |  |  |  |
| COc1[nH]ncc1-c1cc2c(cn1)c(C(=O)C1COc3ccc(Cl)cc3C1)cn2CCN(C)C (stereo not drawn) [Compound 1-3, (6-chlorochroman-3-yl)(1-(2-(dimethylamino)ethyl)-6-(5-methoxy-1H-pyrazol-4-yl)-1H-pyrrolo[3,2-c]pyridin-3-yl)methanone dimethanesulfonic acid] | 0.021 to 0.2 µM | > 0.501 µM |  |  |  |  |
| COc1ccc2c(c1)C[C@H](C(=O)c1cn(C[C@@H]3CCN3C)c3cc(-c4cn[nH]c4Cl)ncc13)CO2 [Compound 1-4] | < 0.02 µM | > 0.501 µM |  |  |  |  |
| COc1[nH]ncc1-c1ccc2c(C(=O)C3COc4ccc(Cl)cc4C3)cn(C[C@@H](C)N(C)C)c2c1 (stereo partly drawn) [Compound 2-14] | < 0.02 µM | 0.201 to 0.5 µM |  |  |  |  |
| C[C@H](N)Cn1cc(C(=O)C2COc3ccc(Cl)cc3C2)c2ccc(-c3c[nH]nc3Cl)cc21 (stereo partly drawn) [Compound 2-7] | < 0.02 µM | < 0.02 µM |  |  |  |  |

The next lines start with results.

| IC50 [1] | IC50 [4] | SMILES | Kp at 0.25 h [2] | Kp at 2 h [2] | Kp at 0.25 h [3] | Kp at 2 h [3] |
| --- | --- | --- | --- | --- | --- | --- |
| < 0.02 µM | 0.201 to 0.5 µM | CN(C)CCn1cc(C(=O)[C@@H]2COc3ccc(Cl)cc3C2)c2ccc(-c3cn[nH]c3Cl)cc21 [Compound 5-36] |  |  |  |  |
| > 0.501 µM | > 0.501 µM | Cc1nocc1-c1ccc2c(C(=O)C3COc4ccc(F)cc4C3)cn(CCN(C)C)c2c1 (stereo not drawn) [Compound 5-26] |  |  |  |  |
| < 0.02 µM | 0.201 to 0.5 µM | CN1CC[C@H]1Cn1nc(C(=O)[C@@H]2COc3ccc(F)cc3C2)c2ccc(-c3c[nH]nc3F)cc21 [Compound 5-57] |  |  |  |  |
| < 0.02 µM | 0.201 to 0.5 µM | CCN(CCn1cc(C(=O)[C@@H]2COc3ccc(OC)cc3C2)c2ccc(-c3c[nH]nc3Cl)cc21)CC(F)F [Compound 5-13] |  |  |  |  |
| > 0.501 µM | > 0.501 µM | CN(C)CCn1nc(C(=O)C2CCOc3ccc(F)cc3C2)c2ccc(-c3c[nH]nc3Cl)cc21 (stereo not drawn) [Compound 5-63] |  |  |  |  |
| < 0.02 µM | < 0.02 µM | COc1[nH]ncc1-c1ccc2c(C(=O)C3COc4ccc(Cl)cc4C3)cn(CC3(N)CC3)c2c1 (stereo not drawn) [Compound 4-1, [1-[(1-aminocyclopropyl)methyl]-6-(5-methoxy-1H-pyrazol-4-yl)indol-3-yl]-(6-chlorochroman-3-yl)methanone] |  |  |  |  |
| 0.021 to 0.2 µM | > 0.501 µM | CCN(C)CCn1cc(C(=O)C2COc3ccc(Cl)cc3C2)c2ccc(-c3cn[nH]c3Cl)cc21 (stereo not drawn) [Compound 3-10] |  |  |  |  |
| < 0.02 µM | > 0.501 µM | CN(C)CCn1nc(C(=O)C2COc3ccc(Cl)cc3C2)c2ccc(-c3c[nH]nc3F)cc21 (stereo not drawn) [Compound 5-48] |  |  |  |  |
| < 0.02 µM | > 0.501 µM | COc1[nH]ncc1-c1ccc2c(C(=O)C3COc4ccc(Cl)cc4C3)cn(CCN(C)C)c2c1 (stereo not drawn) [Compound 5-28] |  |  |  |  |
| 0.201 to 0.5 µM | 0.201 to 0.5 µM | CN(C)CCn1cc(C(=O)C2COc3ccccc3O2)c2ccc(-c3c[nH]nc3Cl)cc21 (stereo not drawn) [Compound 5-18] |  |  |  |  |
| < 0.02 µM | > 0.501 µM | COc1ccc2c(c1)C[C@H](C(=O)c1cn(CCN(C)C)c3cc(-c4c[nH]nc4Cl)ccc13)CO2 [Compound 5-4] |  |  |  |  |
| 0.021 to 0.2 µM | > 0.501 µM | CCN(CC)CCn1cc(C(=O)C2COc3ccc(Cl)cc3C2)c2ccc(-c3cn[nH]c3Cl)cc21 (stereo not drawn) [Compound 3-12] |  |  |  |  |
| < 0.02 µM | 0.201 to 0.5 µM | CCN(CC)CCn1cc(C(=O)[C@@H]2COc3ccc(OC)cc3C2)c2ccc(-c3cn[nH]c3Cl)cc21 [Compound 3-20] |  |  |  |  |
| 0.021 to 0.2 µM | > 0.501 µM | COc1n[nH]cc1-c1ccc2c(C(=O)[C@H]3COc4ccc(Cl)cc4C3)nn(CCN(C)C)c2c1 [Compound 5-47] |  |  |  |  |
| 0.201 to 0.5 µM | > 0.501 µM | Cc1n[nH]cc1-c1ccc2c(C(=O)C3COc4ccc(Cl)cc4C3)cn(CCN(C)C)c2c1 (stereo not drawn) [Compound 5-1, (6-chlorochroman-3-yl)-[1-[2-(dimethylamino)ethyl]-6-(3-methyl-1H-pyrazol-4-yl)indol-3-yl]methanone] |  |  |  |  |
| 0.021 to 0.2 µM | 0.201 to 0.5 µM | CN(C)CCn1nc(C(=O)[C@@H]2COc3ccccc3O2)c2ccc(-c3cn[nH]c3)cc21 [Compound 5-44] |  |  |  |  |
| 0.021 to 0.2 µM | 0.201 to 0.5 µM | COc1ccc2c(c1)CC(C(=O)c1cn(CCN(C)C)c3cc(-c4cn[nH]c4OC)ccc13)CO2 (stereo not drawn) [Compound 5-41] |  |  |  |  |
| < 0.02 µM | 0.021 to 0.2 µM | NC1(Cn2cc(C(=O)C3COc4ccc(F)cc4C3)c3ccc(-c4cn[nH]c4Cl)cc32)CC1 (stereo not drawn) [Compound 4-4] |  |  |  |  |
| 0.201 to 0.5 µM | > 0.501 µM | CN(C)CCn1cc(C(=O)C2COc3ccccc3O2)c2ccc(-c3cn[nH]c3)cc21 (stereo not drawn) [Compound 5-2] |  |  |  |  |
| 0.021 to 0.2 µM | > 0.501 µM | CCN(CCn1cc(C(=O)[C@@H]2COc3ccc(OC)cc3C2)c2ccc(-c3c[nH]nc3Cl)cc21)CC(F)(F)F [Compound 5-14] |  |  |  |  |
| < 0.02 µM | 0.201 to 0.5 µM | CN(C)CCn1nc(C(=O)[C@@H]2COc3ccc(F)cc3C2)c2ccc(-c3c[nH]nc3Cl)cc21 [Compound 5-53] |  |  |  |  |
| < 0.02 µM | < 0.02 µM | NC1(Cn2cc(C(=O)C3COc4ccc(Cl)cc4C3)c3ccc(-c4cn[nH]c4Cl)cc32)CC1 (stereo not drawn) [Compound 4-2] |  |  |  |  |
| 0.201 to 0.5 µM | > 0.501 µM | COc1n[nH]cc1-c1ccc2c(C(=O)[C@H]3COc4ccc(Cl)cc4C3)cn(CCCN(C)C)c2c1 [Compound 3-8] |  |  |  |  |
| < 0.02 µM | > 0.501 µM | COc1[nH]ncc1-c1ccc2c(C(=O)[C@@H]3COc4ccc(F)cc4C3)cn(CCN(C)C)c2c1 [Compound 5-38] |  |  |  |  |

From patent US20240360139A1, “BLOOD BRAIN BARRIER PENETRATING SELECTIVE INHIBITORS OF ROCK2 PROTEIN KINASES AND USES THEREOF” (GENOSCO Inc., priority 2023, published 2024)
